Results published in ChEMBL document CHEMBL5678810.

Legend:
[1] = test system: Tyrosine-protein kinase ABL1 (Homo sapiens), P00519 [H396P]; test: Inhibition of T7 bacteriophage fused human phosphorylated ABL1 H396P mutant at 10 uM by KINOMEscan analysis relative to control
[2] = target: RAC-beta serine/threonine-protein kinase (Homo sapiens) (UniProt P31751); test: Inhibition of T7 bacteriophage fused human AKT2 at 10 uM by KINOMEscan analysis relative to control
[3] = target: Aurora kinase A (Homo sapiens) (UniProt O14965); test: Inhibition of T7 bacteriophage fused human AURKA at 10 uM by KINOMEscan analysis relative to control
[4] = target: Aurora kinase B (Homo sapiens) (UniProt Q96GD4); test: Inhibition of T7 bacteriophage fused human AURKB at 10 uM by KINOMEscan analysis relative to control
[5] = target: Cytoplasmic tyrosine-protein kinase BMX (Homo sapiens) (UniProt P51813); test: Inhibition of T7 bacteriophage fused human BMX at 10 uM by KINOMEscan analysis relative to control
[6] = test system: Serine/threonine-protein kinase B-raf (Homo sapiens), P15056 [V600E]; test: Inhibition of T7 bacteriophage fused human BRAF V600E mutant at 10 uM by KINOMEscan analysis relative to control
[7] = target: Calcium/calmodulin-dependent protein kinase type 1D (Homo sapiens) (UniProt Q8IU85); test: Inhibition of T7 bacteriophage fused human CAMK1D at 10 uM by KINOMEscan analysis relative to control
[8] = target: Calcium/calmodulin-dependent protein kinase type II subunit gamma (Homo sapiens) (UniProt Q13555); test: Inhibition of T7 bacteriophage fused human CAMK2G at 10 uM by KINOMEscan analysis relative to control
[9] = target: Cyclin-dependent kinase 9 (Homo sapiens) (UniProt P50750); test: Inhibition of T7 bacteriophage fused human CDK9 at 10 uM by KINOMEscan analysis relative to control
[10] = target: Casein kinase I isoform gamma-2 (Homo sapiens) (UniProt P78368); test: Inhibition of T7 bacteriophage fused human CSNK1G2 at 10 uM by KINOMEscan analysis relative to control
[11] = target: Megakaryocyte-associated tyrosine-protein kinase (Homo sapiens) (UniProt P42679); test: Inhibition of T7 bacteriophage fused human CTK at 10 uM by KINOMEscan analysis relative to control
[12] = test system: eIF-2-alpha kinase GCN2 (Homo sapiens), Q9P2K8 [S808G]; test: Inhibition of T7 bacteriophage fused human GCN2 S808G mutant Kinase domain-2 at 10 uM by KINOMEscan analysis relative to control
[13] = target: Homeodomain-interacting protein kinase 2 (Homo sapiens) (UniProt Q9H2X6); test: Inhibition of T7 bacteriophage fused human HIPK2 at 10 uM by KINOMEscan analysis relative to control
[14] = target: Hormonally up-regulated neu tumor-associated kinase (Homo sapiens) (UniProt P57058); test: Inhibition of T7 bacteriophage fused human HUNK at 10 uM by KINOMEscan analysis relative to control
[15] = target: Mitogen-activated protein kinase 9 (Homo sapiens) (UniProt P45984); test: Inhibition of T7 bacteriophage fused human JNK2 at 10 uM by KINOMEscan analysis relative to control
[16] = target: Serine/threonine-protein kinase Nek7 (Homo sapiens) (UniProt Q8TDX7); test: Inhibition of T7 bacteriophage fused human NEK7 at 10 uM by KINOMEscan analysis relative to control
[17] = target: Serine/threonine-protein kinase PAK 3 (Homo sapiens) (UniProt O75914); test: Inhibition of T7 bacteriophage fused human PAK3 at 10 uM by KINOMEscan analysis relative to control
[18] = target: Serine/threonine-protein kinase PknB (Mycobacterium tuberculosis) (UniProt P9WI81); test: Inhibition of T7 bacteriophage fused […] tuberculosis PKNB at 10 uM by KINOMEscan analysis relative to control
[19] = target: Serine/threonine-protein kinase PLK2 (Homo sapiens) (UniProt Q9NYY3); test: Inhibition of T7 bacteriophage fused human PLK2 at 10 uM by KINOMEscan analysis relative to control
[20] = target: Ribosomal protein S6 kinase alpha-6 (Homo sapiens) (UniProt Q9UK32); test: Inhibition of T7 bacteriophage fused human C-terminal RSK4 Kinase domain-2 at 10 uM by KINOMEscan analysis relative to control
[21] = target: Tyrosine-protein kinase Fgr (Homo sapiens) (UniProt P09769); test: Inhibition of T7 bacteriophage fused human FGR at 10 uM by KINOMEscan analysis relative to control; values are per cent of control
[22] = target: Serine/threonine-protein kinase/endoribonuclease IRE1 (Homo sapiens) (UniProt O75460); test: Inhibition of T7 bacteriophage fused human ERN1 at 10 uM by KINOMEscan analysis relative to control; values are per cent of control
[23] = target: Rhodopsin kinase GRK1 (Homo sapiens) (UniProt Q15835); test: Inhibition of T7 bacteriophage fused human GRK1 at 10 uM by KINOMEscan analysis relative to control; values are per cent of control
[24] = target: Serine/threonine-protein kinase STK11 (Homo sapiens) (UniProt Q15831); test: Inhibition of T7 bacteriophage fused human LKB1 at 10 uM by KINOMEscan analysis relative to control; values are per cent of control
[25] = target: Muscle, skeletal receptor tyrosine-protein kinase (Homo sapiens) (UniProt O15146); test: Inhibition of T7 bacteriophage fused human MUSK at 10 uM by KINOMEscan analysis relative to control; values are per cent of control
[26] = target: Myosin light chain kinase, smooth muscle (Homo sapiens) (UniProt Q15746); test: Inhibition of T7 bacteriophage fused human MYLK at 10 uM by KINOMEscan analysis relative to control; values are per cent of control
[27] = target: Insulin receptor-related protein (Homo sapiens) (UniProt P14616); test: Inhibition of T7 bacteriophage fused human INSRR at 10 uM by KINOMEscan analysis relative to control; values are per cent of control
[28] = target: Myosin-IIIa (Homo sapiens) (UniProt Q8NEV4); test: Inhibition of T7 bacteriophage fused human MYO3A at 10 uM by KINOMEscan analysis relative to control; values are per cent of control
[29] = target: Casein kinase I isoform delta (Homo sapiens) (UniProt P48730); test: Inhibition of T7 bacteriophage fused human CSNK1D at 10 uM by KINOMEscan analysis relative to control; values are per cent of control
[30] = target: Serine/threonine-protein kinase DCLK1 (Homo sapiens) (UniProt O15075); test: Inhibition of T7 bacteriophage fused human DCAMKL1 at 10 uM by KINOMEscan analysis relative to control; values are per cent of control
Chain of Serine/threonine-protein kinase DCLK1 (Homo sapiens) (O15075 whole entry, the tested form may be a part): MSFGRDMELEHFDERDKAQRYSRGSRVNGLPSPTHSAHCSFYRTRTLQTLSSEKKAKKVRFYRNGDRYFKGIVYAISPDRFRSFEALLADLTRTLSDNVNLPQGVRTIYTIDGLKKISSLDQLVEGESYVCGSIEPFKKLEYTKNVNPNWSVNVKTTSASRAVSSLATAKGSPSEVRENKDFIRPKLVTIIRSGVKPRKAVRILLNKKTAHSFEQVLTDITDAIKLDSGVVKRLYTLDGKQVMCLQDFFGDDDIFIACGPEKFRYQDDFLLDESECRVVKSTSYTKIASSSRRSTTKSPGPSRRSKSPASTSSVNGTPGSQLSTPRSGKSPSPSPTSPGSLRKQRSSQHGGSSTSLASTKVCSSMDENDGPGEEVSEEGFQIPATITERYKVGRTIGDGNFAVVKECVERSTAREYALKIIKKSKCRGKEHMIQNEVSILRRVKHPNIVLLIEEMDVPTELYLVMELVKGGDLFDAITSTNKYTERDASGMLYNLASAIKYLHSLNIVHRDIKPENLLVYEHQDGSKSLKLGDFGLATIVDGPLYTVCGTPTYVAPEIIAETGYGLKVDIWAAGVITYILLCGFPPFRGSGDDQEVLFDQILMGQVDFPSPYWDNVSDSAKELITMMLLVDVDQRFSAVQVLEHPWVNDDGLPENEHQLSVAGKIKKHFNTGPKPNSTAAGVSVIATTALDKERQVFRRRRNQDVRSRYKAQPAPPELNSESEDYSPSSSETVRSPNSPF

Chain of Homeodomain-interacting protein kinase 2 (Homo sapiens) (Q9H2X6 whole entry, looked up, the tested form may be a part): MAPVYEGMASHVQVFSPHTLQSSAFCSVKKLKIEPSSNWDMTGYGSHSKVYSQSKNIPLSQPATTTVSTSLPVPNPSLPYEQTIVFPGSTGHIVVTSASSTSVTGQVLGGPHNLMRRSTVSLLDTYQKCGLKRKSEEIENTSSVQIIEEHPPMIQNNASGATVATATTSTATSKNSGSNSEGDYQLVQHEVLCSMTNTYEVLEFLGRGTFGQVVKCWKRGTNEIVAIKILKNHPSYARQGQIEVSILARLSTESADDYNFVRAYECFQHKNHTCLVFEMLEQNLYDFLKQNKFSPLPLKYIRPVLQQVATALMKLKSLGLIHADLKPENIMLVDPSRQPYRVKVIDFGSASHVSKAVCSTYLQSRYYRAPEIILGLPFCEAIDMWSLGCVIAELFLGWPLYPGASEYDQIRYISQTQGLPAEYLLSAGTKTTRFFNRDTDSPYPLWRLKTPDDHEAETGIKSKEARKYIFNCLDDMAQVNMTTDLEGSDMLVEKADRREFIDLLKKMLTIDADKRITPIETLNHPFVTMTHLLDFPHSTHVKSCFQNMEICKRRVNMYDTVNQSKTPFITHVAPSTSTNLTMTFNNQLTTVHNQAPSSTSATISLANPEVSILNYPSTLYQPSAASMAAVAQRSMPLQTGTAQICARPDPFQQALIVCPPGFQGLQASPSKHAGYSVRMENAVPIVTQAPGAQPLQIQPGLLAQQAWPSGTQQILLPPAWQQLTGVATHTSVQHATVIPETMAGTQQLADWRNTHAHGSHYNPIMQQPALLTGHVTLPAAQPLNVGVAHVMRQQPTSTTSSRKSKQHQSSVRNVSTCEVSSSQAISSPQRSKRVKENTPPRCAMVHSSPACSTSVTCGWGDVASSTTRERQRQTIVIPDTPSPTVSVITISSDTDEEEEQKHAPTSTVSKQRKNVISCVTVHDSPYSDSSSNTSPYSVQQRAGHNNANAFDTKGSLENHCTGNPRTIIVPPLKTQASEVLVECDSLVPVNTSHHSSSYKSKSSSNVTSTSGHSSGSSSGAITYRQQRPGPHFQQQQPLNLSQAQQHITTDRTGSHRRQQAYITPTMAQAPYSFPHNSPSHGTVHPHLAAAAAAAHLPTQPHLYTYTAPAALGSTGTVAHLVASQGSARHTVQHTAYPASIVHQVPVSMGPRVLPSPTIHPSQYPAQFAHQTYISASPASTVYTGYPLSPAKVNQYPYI
Chain of Mitogen-activated protein kinase 9 (Homo sapiens) (P45984 whole entry, looked up, the tested form may be a part): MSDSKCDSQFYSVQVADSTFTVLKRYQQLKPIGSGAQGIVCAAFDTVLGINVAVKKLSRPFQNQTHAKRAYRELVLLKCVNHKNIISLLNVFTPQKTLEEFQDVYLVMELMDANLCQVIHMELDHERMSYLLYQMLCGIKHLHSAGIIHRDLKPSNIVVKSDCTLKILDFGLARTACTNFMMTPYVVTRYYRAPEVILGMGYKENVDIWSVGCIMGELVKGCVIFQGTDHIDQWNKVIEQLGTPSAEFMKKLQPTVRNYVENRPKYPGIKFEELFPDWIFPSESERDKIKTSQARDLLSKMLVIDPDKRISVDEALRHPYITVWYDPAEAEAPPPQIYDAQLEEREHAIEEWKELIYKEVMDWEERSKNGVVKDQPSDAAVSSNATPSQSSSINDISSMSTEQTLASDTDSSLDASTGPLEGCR
Chain of Aurora kinase A (Homo sapiens) (O14965 whole entry, the tested form may be a part): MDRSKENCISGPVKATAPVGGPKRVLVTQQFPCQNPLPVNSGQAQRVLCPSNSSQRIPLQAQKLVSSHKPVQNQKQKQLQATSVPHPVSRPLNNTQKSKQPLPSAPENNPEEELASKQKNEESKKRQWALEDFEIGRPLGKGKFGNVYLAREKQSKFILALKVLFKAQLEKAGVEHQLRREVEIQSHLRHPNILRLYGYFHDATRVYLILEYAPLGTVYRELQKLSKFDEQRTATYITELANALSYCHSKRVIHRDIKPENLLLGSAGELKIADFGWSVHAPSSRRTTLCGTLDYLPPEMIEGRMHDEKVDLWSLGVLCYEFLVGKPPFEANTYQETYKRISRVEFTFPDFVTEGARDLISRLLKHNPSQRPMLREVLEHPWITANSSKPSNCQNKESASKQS
Chain of Serine/threonine-protein kinase B-raf (Homo sapiens), P15056 [V600E] (P15056 whole entry V600E, the tested form may be a part): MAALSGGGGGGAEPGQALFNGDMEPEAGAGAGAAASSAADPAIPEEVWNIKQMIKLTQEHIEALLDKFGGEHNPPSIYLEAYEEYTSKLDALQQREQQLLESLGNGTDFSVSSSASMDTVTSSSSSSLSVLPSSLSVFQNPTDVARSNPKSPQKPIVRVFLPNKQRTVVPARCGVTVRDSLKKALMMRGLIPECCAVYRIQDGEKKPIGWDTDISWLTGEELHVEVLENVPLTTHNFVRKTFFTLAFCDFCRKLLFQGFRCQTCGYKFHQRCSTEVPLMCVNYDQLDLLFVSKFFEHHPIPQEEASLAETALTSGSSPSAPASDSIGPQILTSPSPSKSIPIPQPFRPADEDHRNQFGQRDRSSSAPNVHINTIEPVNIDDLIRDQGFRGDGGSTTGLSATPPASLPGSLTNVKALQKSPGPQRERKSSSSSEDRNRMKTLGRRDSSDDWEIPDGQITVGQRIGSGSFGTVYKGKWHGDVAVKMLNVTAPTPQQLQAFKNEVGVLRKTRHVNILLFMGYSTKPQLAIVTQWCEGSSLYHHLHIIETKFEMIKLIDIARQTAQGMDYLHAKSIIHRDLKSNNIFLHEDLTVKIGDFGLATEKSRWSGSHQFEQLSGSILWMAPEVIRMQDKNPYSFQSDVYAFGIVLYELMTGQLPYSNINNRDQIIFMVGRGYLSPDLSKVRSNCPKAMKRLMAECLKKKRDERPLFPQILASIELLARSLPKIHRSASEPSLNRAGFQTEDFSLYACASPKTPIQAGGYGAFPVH
Chain of Calcium/calmodulin-dependent protein kinase type 1D (Homo sapiens) (Q8IU85 whole entry, looked up, the tested form may be a part): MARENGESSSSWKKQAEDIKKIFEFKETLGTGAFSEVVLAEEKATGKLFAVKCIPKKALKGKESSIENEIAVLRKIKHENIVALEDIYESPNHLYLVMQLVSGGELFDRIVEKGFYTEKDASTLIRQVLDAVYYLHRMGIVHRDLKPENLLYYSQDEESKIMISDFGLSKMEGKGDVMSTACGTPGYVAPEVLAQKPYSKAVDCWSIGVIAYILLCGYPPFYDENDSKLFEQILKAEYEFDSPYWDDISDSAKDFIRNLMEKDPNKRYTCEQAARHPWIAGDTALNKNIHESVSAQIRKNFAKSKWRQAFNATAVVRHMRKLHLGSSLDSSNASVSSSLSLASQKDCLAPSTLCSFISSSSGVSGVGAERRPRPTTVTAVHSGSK
Chain of Serine/threonine-protein kinase PknB (Mycobacterium tuberculosis) (P9WI81 whole entry, the tested form may be a part): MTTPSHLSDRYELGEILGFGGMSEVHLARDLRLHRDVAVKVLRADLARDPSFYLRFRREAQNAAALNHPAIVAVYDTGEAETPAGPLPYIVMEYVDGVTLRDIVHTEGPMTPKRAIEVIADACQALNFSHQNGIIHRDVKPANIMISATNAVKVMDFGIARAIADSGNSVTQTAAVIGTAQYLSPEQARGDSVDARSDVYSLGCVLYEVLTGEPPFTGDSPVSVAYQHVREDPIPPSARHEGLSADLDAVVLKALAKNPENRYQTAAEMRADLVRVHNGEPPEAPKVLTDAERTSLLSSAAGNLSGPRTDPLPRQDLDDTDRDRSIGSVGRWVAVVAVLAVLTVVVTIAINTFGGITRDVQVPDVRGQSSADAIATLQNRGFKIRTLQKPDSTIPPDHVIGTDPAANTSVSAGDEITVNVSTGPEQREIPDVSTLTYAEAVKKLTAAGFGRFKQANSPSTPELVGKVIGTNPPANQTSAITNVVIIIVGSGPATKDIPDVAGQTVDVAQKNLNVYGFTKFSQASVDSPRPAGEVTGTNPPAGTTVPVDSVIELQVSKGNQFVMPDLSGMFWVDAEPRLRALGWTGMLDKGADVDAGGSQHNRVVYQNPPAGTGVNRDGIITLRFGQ
Chain of Cyclin-dependent kinase 9 (Homo sapiens) (P50750 whole entry, the tested form may be a part, canonical isoform): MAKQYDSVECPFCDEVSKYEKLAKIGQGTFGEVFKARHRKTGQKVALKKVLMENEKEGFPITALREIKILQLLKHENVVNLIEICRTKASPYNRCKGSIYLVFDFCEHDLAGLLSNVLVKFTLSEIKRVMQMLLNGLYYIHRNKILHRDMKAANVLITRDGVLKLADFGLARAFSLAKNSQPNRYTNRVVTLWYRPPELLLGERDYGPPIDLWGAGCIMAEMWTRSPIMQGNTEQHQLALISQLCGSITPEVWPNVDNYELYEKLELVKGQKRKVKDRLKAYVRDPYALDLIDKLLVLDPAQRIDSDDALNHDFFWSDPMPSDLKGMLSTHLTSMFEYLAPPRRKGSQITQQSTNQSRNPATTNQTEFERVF

Q: With `COc1cc(N2CCC(N3CCN(C)CC3)CC2)ccc1Nc1ncc2c(n1)N(C)c1ccccc1C(=O)N2C` as the compound, how does the inhibition [1] read?
A: 100%

Q: What about the inhibition [2] of the same compound?
A: 100%

Q: What about the inhibition [3] of the same compound?
A: 1.2%

Q: And the inhibition [4]?
A: 38%

Q: And the inhibition [5]?
A: 87%

Q: And the inhibition [6]?
A: 100%

Q: What about the inhibition [7] of the same compound?
A: 69%

Q: And the inhibition [8]?
A: 47%

Q: And the inhibition [9]?
A: 100%

Q: What about the inhibition [10] of the same compound?
A: 100%

Q: And the inhibition [11]?
A: 100%

Q: And the inhibition [12]?
A: 95%

Q: What about the inhibition [13] of the same compound?
A: 88%

Q: And the inhibition [14]?
A: 100%

Q: What about the inhibition [15] of the same compound?
A: 94%

Q: What about the inhibition [16] of the same compound?
A: 100%

Q: What about the inhibition [17] of the same compound?
A: 83%

Q: And the inhibition [18]?
A: 100%

Q: What about the inhibition [19] of the same compound?
A: 100%

Q: And the inhibition [20]?
A: 2.2%

Q: What about the residual activity [21] of the same compound?
A: 84%

Q: And the residual activity [22]?
A: 59%

Q: And the residual activity [23]?
A: 91%

Q: And the residual activity [24]?
A: 96%

Q: And the residual activity [25]?
A: 99%

Q: What about the residual activity [26] of the same compound?
A: 8.7%

Q: What about the residual activity [27] of the same compound?
A: 97%

Q: And the residual activity [28]?
A: 94%

Q: And the residual activity [29]?
A: 81%

Q: What about the residual activity [30] of the same compound?
A: 4.2%
